Laboratory results published in patent US20230085307A1, “PYRIDAZINONE COMPOUND AND HERBICIDE” (NISSAN CHEMICAL CORPORATION, priority 2019, published 2023).

How the values were obtained:
barnyard grass [1] = test: Test Example 3: herbicidal effect by foliage application, Wagner pot (Table 18, symbol H); assay type: in vivo, barnyard grass (Echinochloa crus-galli); details: amount of applied herbicide 320 g/ha
In short: (§1)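 Plants were sown in alluvial soil held under 0.1–0.5 cm standing water and grown 14 days in a greenhouse at 25–30 °C. An emulsifiable formulation, water-diluted to the set dose, was then sprayed onto the foliage, and effects were scored three weeks later using previously defined criteria.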

persian speedwell = test: Test Example 5: herbicidal effect by foliage application, plastic box (Table 20, symbol R); assay type: in vivo, Persian speedwell (Veronica persica); details: foliage application; for R: persian speedwell, herbicidal effect grade: 320 g/ha, three weeks after application
In short: (§2)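 Sow seeds spot-wise in sterilized diluvial soil; cover with ~1.5 cm soil. Grow 14 days in greenhouse, 25° C. to 30° C. Spray foliage with emulsion diluted to predetermined amount. Rate effect after 3 weeks.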

Italian ryegrass = test: Test Example 5: herbicidal effect by foliage application, plastic box (Table 20, symbol K); assay type: in vivo, Italian ryegrass (Lolium multiflorum); details: foliage application; for K: Italian ryegrass, herbicidal effect grade: 320 g/ha, three weeks after application
In short: as §2

rice flat sedge = test: Test Example 3: herbicidal effect by foliage application, Wagner pot (Table 18, symbol E); assay type: in vivo, rice flat sedge (Cyperus iria); details: amount of applied herbicide 320 g/ha
In short: as §1

southern crabgrass = test: Test Example 5: herbicidal effect by foliage application, plastic box (Table 20, symbol F); assay type: in vivo, southern crabgrass (Digitaria ciliaris); details: foliage application; for F: southern crabgrass, herbicidal effect grade: 320 g/ha, three weeks after application
In short: as §2

windgrass = test: Test Example 5: herbicidal effect by foliage application, plastic box (Table 20, symbol L); assay type: in vivo, windgrass (Apera spica-venti); details: foliage application; for L: windgrass, herbicidal effect grade: 320 g/ha, three weeks after application
In short: as §2

lambsquarters = test: Test Example 5: herbicidal effect by foliage application, plastic box (Table 20, symbol O); assay type: in vivo, lambsquarters (Chenopodium album); details: foliage application; for O: lambsquarters, herbicidal effect grade: 320 g/ha, three weeks after application
In short: as §2

redroot pigweed = test: Test Example 5: herbicidal effect by foliage application, plastic box (Table 20, symbol N); assay type: in vivo, redroot pigweed (Amaranthus retroflexus); details: foliage application; for N: redroot pigweed, herbicidal effect grade: 320 g/ha, three weeks after application
In short: as §2

wild oat = test: Test Example 5: herbicidal effect by foliage application, plastic box (Table 20, symbol I); assay type: in vivo, wild oat (Avena fatua); details: foliage application; for I: wild oat, herbicidal effect grade: 320 g/ha, three weeks after application
In short: as §2

Chinese sprangletop = test: Test Example 3: herbicidal effect by foliage application, Wagner pot (Table 18, symbol D); assay type: in vivo, chinese sprangletop (Leptochloa chinensis); details: amount of applied herbicide 320 g/ha
In short: as §1

chickweed = test: Test Example 5: herbicidal effect by foliage application, plastic box (Table 20, symbol P); assay type: in vivo, common chickweed (Stellaria media); details: foliage application; for P: chickweed, herbicidal effect grade: 320 g/ha, three weeks after application
In short: as §2

green foxtail = test: Test Example 5: herbicidal effect by foliage application, plastic box (Table 20, symbol G); assay type: in vivo, green foxtail (Setaria viridis); details: foliage application; for G: green foxtail, herbicidal effect grade: 320 g/ha, three weeks after application
In short: as §2

velvetleaf = test: Test Example 5: herbicidal effect by foliage application, plastic box (Table 20, symbol M); assay type: in vivo, velvetleaf (Abutilon theophrasti); details: foliage application; for M: velvetleaf, herbicidal effect grade: 320 g/ha, three weeks after application
In short: as §2

blackgrass = test: Test Example 5: herbicidal effect by foliage application, plastic box (Table 20, symbol J); assay type: in vivo, blackgrass (Alopecurus myosuroides); details: foliage application; for J: blackgrass, herbicidal effect grade: 320 g/ha, three weeks after application
In short: as §2

barnyard grass [2] = test: Test Example 5: herbicidal effect by foliage application, plastic box (Table 20, symbol H); assay type: in vivo, barnyard grass (Echinochloa crus-galli); details: foliage application; for H: barnyard grass, herbicidal effect grade: 320 g/ha, three weeks after application
In short: as §2

[3] = AAH 320 g/ha, evaluated three weeks after application

SMILES | herbicidal effect on H: barnyard grass (barnyard grass [1]) | herbicidal effect on E: rice flat sedge (rice flat sedge) | herbicidal effect on D: Chinese sprangletop (Chinese sprangletop) | R: persian speedwell, herbicidal effect grade (persian speedwell) | K: Italian ryegrass, herbicidal effect grade (Italian ryegrass) | F: southern crabgrass, herbicidal effect grade (southern crabgrass) | L: windgrass, herbicidal effect grade (windgrass) | O: lambsquarters, herbicidal effect grade (lambsquarters) | N: redroot pigweed, herbicidal effect grade (redroot pigweed) | I: wild oat, herbicidal effect grade (wild oat) | P: chickweed, herbicidal effect grade (chickweed) | G: green foxtail, herbicidal effect grade (green foxtail) | M: velvetleaf, herbicidal effect grade (velvetleaf) | J: blackgrass, herbicidal effect grade (blackgrass) | H: barnyard grass, herbicidal effect grade (barnyard grass [2]) | other results
CC(=O)COc1c(C)nn(C)c(=O)c1-c1c(-c2ccc(OC(F)F)cc2)sc2ccc(F)cc12 [2-304] | 3 (Herbicidal rate of 40% or more and less than 70%) | 3 (Herbicidal rate of 40% or more and less than 70%) | 3 (Herbicidal rate of 40% or more and less than 70%) | – | – | – | – | – | – | – | – | – | – | – | – | R: persian speedwell, herbicidal effect (criteria 0-5) (persian speedwell; [3]): 5 (Herbicidal rate of 90% or more (almost completely withered)); K: Italian ryegrass, herbicidal effect (criteria 0-5) (Italian ryegrass; [3]): 0 (Herbicidal rate of 5% or less (almost no effect)); F: southern crabgrass, herbicidal effect (criteria 0-5) (southern crabgrass; [3]): 0 (Herbicidal rate of 5% or less (almost no effect)); L: windgrass, herbicidal effect (criteria 0-5) (windgrass; [3]): 0 (Herbicidal rate of 5% or less (almost no effect)); O: lambsquarters, herbicidal effect (criteria 0-5) (lambsquarters; [3]): 3 (Herbicidal rate of 40% or more and less than 70%); N: redroot pigweed, herbicidal effect (criteria 0-5) (redroot pigweed; [3]): 5 (Herbicidal rate of 90% or more (almost completely withered)); I: wild oat, herbicidal effect (criteria 0-5) (wild oat; [3]): 0 (Herbicidal rate of 5% or less (almost no effect)); P: chickweed, herbicidal effect (criteria 0-5) (chickweed; [3]): 5 (Herbicidal rate of 90% or more (almost completely withered)); G: green foxtail, herbicidal effect (criteria 0-5) (green foxtail; [3]): 0 (Herbicidal rate of 5% or less (almost no effect)); M: velvetleaf, herbicidal effect (criteria 0-5) (velvetleaf; [3]): 0 (Herbicidal rate of 5% or less (almost no effect)); J: blackgrass, herbicidal effect (criteria 0-5) (blackgrass; [3]): 0 (Herbicidal rate of 5% or less (almost no effect)); H: barnyard grass, herbicidal effect (criteria 0-5) (barnyard grass [2]; [3]): 0 (Herbicidal rate of 5% or less (almost no effect))
COc1ccccc1-c1sc2ccc(F)cc2c1-c1c(O)c(C)nn(Cc2ccccc2)c1=O [2-438] | 2 (Herbicidal rate of 20% or more and less than 40%) | 2 (Herbicidal rate of 20% or more and less than 40%) | 0 (Herbicidal rate of 5% or less (almost no effect)) | 0 (Herbicidal rate of 5% or less (almost no effect)) | 0 (Herbicidal rate of 5% or less (almost no effect)) | 0 (Herbicidal rate of 5% or less (almost no effect)) | 0 (Herbicidal rate of 5% or less (almost no effect)) | 0 (Herbicidal rate of 5% or less (almost no effect)) | 3 (Herbicidal rate of 40% or more and less than 70%) | 0 (Herbicidal rate of 5% or less (almost no effect)) | 0 (Herbicidal rate of 5% or less (almost no effect)) | 0 (Herbicidal rate of 5% or less (almost no effect)) | 0 (Herbicidal rate of 5% or less (almost no effect)) | 0 (Herbicidal rate of 5% or less (almost no effect)) | 0 (Herbicidal rate of 5% or less (almost no effect)) | –
Cc1nn(C)c(=O)c(-c2c(-c3ccc(Oc4ncc(C(F)(F)F)cc4Cl)cc3)sc3ccc(F)cc23)c1O [2-467] | 3 (Herbicidal rate of 40% or more and less than 70%) | 4 (Herbicidal rate of 70% or more and less than 90%) | 4 (Herbicidal rate of 70% or more and less than 90%) | 4 (Herbicidal rate of 70% or more and less than 90%) | 0 (Herbicidal rate of 5% or less (almost no effect)) | 0 (Herbicidal rate of 5% or less (almost no effect)) | 5 (Herbicidal rate of 90% or more (almost completely withered)) | 4 (Herbicidal rate of 70% or more and less than 90%) | 3 (Herbicidal rate of 40% or more and less than 70%) | 0 (Herbicidal rate of 5% or less (almost no effect)) | 3 (Herbicidal rate of 40% or more and less than 70%) | 2 (Herbicidal rate of 20% or more and less than 40%) | 1 (Herbicidal rate of 5% or more and less than 20%) | 0 (Herbicidal rate of 5% or less (almost no effect)) | 1 (Herbicidal rate of 5% or more and less than 20%) | –
